Laboratory results as given in patent publication US10272102B2, “Hydroxyalkyl starch for the treatment of hematological neoplasms” (FRESENIUS KABI DEUTSCHLAND GMBH, priority 2013, dated 2019).

Columns and labels:
CCRF-SB = assay: Prestoblue fluorescence cell viability assay, CCRF-SB; format: cell-based; settings: CCRF-SB (ALL), 72 h incubation
Experimental: (§1) The objective of this study was to investigate potential effects of hydroxyethyl starch (“HES 130/0.4”) on cell viability of different leukemia cell lines. The 50% inhibition concentration (IC50) was determined in 28 different leukemia cell lines using the commercially available “Prestoblue fluorescence cell viability assay” after incubation with different “HES 130/0.4” concentrations for screening reasons. The concentration range of the tested HES was 100 mg/ml-[…].
(§2) PrestoBlue® reagent is a resazurin-based solution that functions as a cell viability indicator by using the reducing power of living cells to quantitatively measure the proliferation of cells. […] This change can be detected using fluorescence or absorbance measurements (see e.g. Int J Microbiol. 2013; 2013: 420601; published online Apr. 4, 2013 doi: 10.1155/2013/420601 PMCID PMC3638707). […]
(§3) Cells were harvested during the logarithmic growth period and counted using the commercially available cell counting device Countstar. […]
(§4) The test plate was incubated for 72 h in a humidified incubator at 37° C. with 5% CO2, and then measured by means of PrestoBlue assay. […] The plate was then incubated at room temperature for 30 minutes until fluorescence (T0) could be recorded using EnVision Multi Label Reader (Excitation: 540-570 nm/Emission: 580-610 nm). […]

Jurkat = assay: Prestoblue fluorescence cell viability assay, Jurkat; format: cell-based; settings: Jurkat (ALL), 72 h incubation
Experimental: as §1, §2, §3, §4

MHH-CALL-2 = assay: Prestoblue fluorescence cell viability assay, MHH-CALL-2; format: cell-based; settings: MHH-CALL-2 (ALL), 72 h incubation
Experimental: as §1, §2, §3, §4

Molt-4 = assay: Prestoblue fluorescence cell viability assay, Molt-4; format: cell-based; settings: Molt-4 (ALL), 72 h incubation
Experimental: as §1, §2, §3, §4

MUTZ-5 = assay: Prestoblue fluorescence cell viability assay, MUTZ-5; format: cell-based; settings: MUTZ-5 (ALL), 72 h incubation
Experimental: as §1, §2, §3, §4

NALM 6 = assay: Prestoblue fluorescence cell viability assay, NALM 6; format: cell-based; settings: NALM 6 (ALL), 72 h incubation
Experimental: as §1, §2, §3, §4

PEER IE6 = assay: Prestoblue fluorescence cell viability assay, PEER IE6; format: cell-based; settings: PEER IE6 (ALL), 72 h incubation
Experimental: as §1, §2, §3, §4

RS4;11 = assay: Prestoblue fluorescence cell viability assay, RS4;11; format: cell-based; settings: RS4;11 (ALL), 72 h incubation
Experimental: as §1, §2, §3, §4

SUP-B15 = assay: Prestoblue fluorescence cell viability assay, SUP-B15; format: cell-based; settings: SUP-B15 (ALL), 72 h incubation
Experimental: as §1, §2, §3, §4

HL-60 = assay: Prestoblue fluorescence cell viability assay, HL-60; format: cell-based; settings: HL-60 (AML), 72 h incubation
Experimental: as §1, §2, §3, §4

Kasumi-1 = assay: Prestoblue fluorescence cell viability assay, Kasumi-1; format: cell-based; settings: Kasumi-1 (AML), 72 h incubation
Experimental: as §1, §2, §3, §4

ML-2 = assay: Prestoblue fluorescence cell viability assay, ML-2; format: cell-based; settings: ML-2 (AML), 72 h incubation
Experimental: as §1, §2, §3, §4

MOLM-13 = assay: Prestoblue fluorescence cell viability assay, MOLM-13; format: cell-based; settings: MOLM-13 (AML), 72 h incubation
Experimental: as §1, §2, §3, §4

MOLM-16 = assay: Prestoblue fluorescence cell viability assay, MOLM-16; format: cell-based; settings: MOLM-16 (AML), 72 h incubation
Experimental: as §1, §2, §3, §4

MV-4-11 = assay: Prestoblue fluorescence cell viability assay, MV-4-11; format: cell-based; settings: MV-4-11 (AML), 72 h incubation
Experimental: as §1, §2, §3, §4

NB4 = assay: Prestoblue fluorescence cell viability assay, NB4; format: cell-based; settings: NB4 (AML), 72 h incubation
Experimental: as §1, §2, §3, §4

THP-1 = assay: Prestoblue fluorescence cell viability assay, THP-1; format: cell-based; settings: THP-1 (AML), 72 h incubation
Experimental: as §1, §2, §3, §4

Reh = assay: Prestoblue fluorescence cell viability assay, Reh; format: cell-based; settings: 72 h incubation
Experimental: as §1, §2, §3, §4

TF-1 = assay: Prestoblue fluorescence cell viability assay, TF-1; format: cell-based; settings: TF-1 (AML), 72 h incubation
Experimental: as §1, §2, §3, §4

EHEB = assay: Prestoblue fluorescence cell viability assay, EHEB; format: cell-based; settings: EHEB (CLL), 72 h incubation
Experimental: as §1, §2, §3, §4

JVM-13 = assay: Prestoblue fluorescence cell viability assay, JVM-13; format: cell-based; settings: JVM-13 (CLL), 72 h incubation
Experimental: as §1, §2, §3, §4

JVM-2 = assay: Prestoblue fluorescence cell viability assay, JVM-2; format: cell-based; settings: JVM-2 (CLL), 72 h incubation
Experimental: as §1, §2, §3, §4

JVM-3 = assay: Prestoblue fluorescence cell viability assay, JVM-3; format: cell-based; settings: JVM-3 (CLL), 72 h incubation
Experimental: as §1, §2, §3, §4

MEC-1 = assay: Prestoblue fluorescence cell viability assay, MEC-1; format: cell-based; settings: MEC-1 (CLL), 72 h incubation
Experimental: as §1, §2, §3, §4

MEC-2 = assay: Prestoblue fluorescence cell viability assay, MEC-2; format: cell-based; settings: MEC-2 (CLL), 72 h incubation
Experimental: as §1, §2, §3, §4

K-562 = assay: Prestoblue fluorescence cell viability assay, K-562; format: cell-based; settings: K-562 (CML), 72 h incubation
Experimental: as §1, §2, §3, §4

KU812 = assay: Prestoblue fluorescence cell viability assay, KU812; format: cell-based; settings: KU812 (CML), 72 h incubation
Experimental: as §1, §2, §3, §4

MEG-01 = assay: Prestoblue fluorescence cell viability assay, MEG-01; format: cell-based; settings: MEG-01 (CML), 72 h incubation
Experimental: as §1, §2, §3, §4

[1] = system: human acute myelogeneous leukemia EOL-1 cell line; assay: s.c. EOL-1 xenotransplantation model, tumor growth; format: in vivo; settings: EOL-1 tumor-bearing male NOD/SCID mice; 75 mg/kg i.p. single dose (day 0)
Experimental: For calculation of the relative tumor volume (RTV) the tumor volumes at each measurement day were related to the day of first treatment. At each measurement day the median and mean tumor volumes per group and also the treated to control (T/C) values in percent were calculated.

N.N.[Cl][Pt][Cl] [Cisplatin, cisplatin]
IC50 (CCRF-SB): 100 µg/mL
Max-inhibition (CCRF-SB): 100%
IC50 (Jurkat): 200 µg/mL
Max-inhibition (Jurkat): 100%
IC50 (MHH-CALL-2): 140 µg/mL
Max-inhibition (MHH-CALL-2): 100%
IC50 (Molt-4): 150 µg/mL
Max-inhibition (Molt-4): 100%
IC50 (MUTZ-5): 190 µg/mL
Max-inhibition (MUTZ-5): 100%
IC50 (NALM 6): 240 µg/mL
Max-inhibition (NALM 6): 100%
IC50 (PEER IE6): 3730 µg/mL
Max-inhibition (PEER IE6): 100%
IC50 (RS4;11): 50 µg/mL
Max-inhibition (RS4;11): 100%
IC50 (SUP-B15): 450 µg/mL
Max-inhibition (SUP-B15): 100%
IC50 (HL-60): 450 µg/mL
Max-inhibition (HL-60): 100%
IC50 (Kasumi-1): 780 µg/mL
Max-inhibition (Kasumi-1): 100%
IC50 (ML-2): 350 µg/mL
Max-inhibition (ML-2): 100%
IC50 (MOLM-13): 340 µg/mL
Max-inhibition (MOLM-13): 100%
IC50 (MOLM-16): 650 µg/mL
Max-inhibition (MOLM-16): 100%
IC50 (MV-4-11): 160 µg/mL
Max-inhibition (MV-4-11): 100%
IC50 (NB4): 140 µg/mL
Max-inhibition (NB4): 100%
IC50 (THP-1): 640 µg/mL
Max-inhibition (THP-1): 100%
Max-inhibition (Reh; Reh (AML)): 100%
IC50 (Reh; Reh (B-ALL)): 170 µg/mL
IC50 (TF-1): 1720 µg/mL
Max-inhibition (TF-1): 100%
IC50 (EHEB): 490 µg/mL
Max-inhibition (EHEB): 100%
IC50 (JVM-13): 180 µg/mL
Max-inhibition (JVM-13): 100%
IC50 (JVM-2): 180 µg/mL
Max-inhibition (JVM-2): 100%
IC50 (JVM-3): 270 µg/mL
Max-inhibition (JVM-3): 100%
IC50 (MEC-1): 1150 µg/mL
Max-inhibition (MEC-1): 100%
IC50 (MEC-2): 1670 µg/mL
Max-inhibition (MEC-2): 100%
IC50 (K-562): 1290 µg/mL
Max-inhibition (K-562): 100%
IC50 (KU812): 250 µg/mL
Max-inhibition (KU812): 100%
IC50 (MEG-01): 830 µg/mL
Max-inhibition (MEG-01): 100%

O=P1(N(CCCl)CCCl)NCCCO1 (stereo not drawn) [Cyclophosphamide]
inhibition of tumor growth [1]: significant inhibition
